Assay results from PubChem BioAssay (NCI).
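Protocol summary: plate cells (96-well), add compound at 5 concentrations, incubate 48 h, interpolate endpoints linearly. GI50: concentration for 50% inhibition of growth. TGI denotes the concentration required for complete inhibition of growth.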

The molecules below were run on SK-MEL-28 melanoma (assay: NCI tumour cell line growth inhibition, 48 h).

Row | Compound | TGI | GI50
1 | O=[N+]([O-])/C(C(Cl)=C(Cl)Cl)=C(\SCc1ccccc1)N1CCCCC1 | > 100 µM | –
2 | CCCN=C1CCN(Cc2ccccc2)c2ccccc2N1 | 29.3 µM | –
3 | O=C1CC(c2ccc3c(c2)OCO3)Nc2ccccc21 (stereo not drawn) | 32.7 µM | 15.1 µM
4 | CCC(CO)Nc1nc2ccc(Cl)cc2c2ccccc12 (stereo not drawn) | 27.3 µM | 14.3 µM
5 | FC(F)(F)c1cc(Cl)cnc1N/N=C(/c1ccccc1)c1ccccn1 | > 100 µM | –

Each molecule was assayed on UO-31 renal (assay: NCI tumour cell line growth inhibition, 48 h).

Row | Compound | TGI | GI50
6 | O=[N+]([O-])/C(C(Cl)=C(Cl)Cl)=C(\SCc1ccccc1)N1CCCCC1 | 56.5 µM | –
7 | CCCN=C1CCN(Cc2ccccc2)c2ccccc2N1 | > 100 µM | –
8 | O=C1CC(c2ccc3c(c2)OCO3)Nc2ccccc21 (stereo not drawn) | 19.4 µM | 5.9 µM
9 | CCC(CO)Nc1nc2ccc(Cl)cc2c2ccccc12 (stereo not drawn) | 16.3 µM | 4.01 µM
10 | FC(F)(F)c1cc(Cl)cnc1N/N=C(/c1ccccc1)c1ccccn1 | 11.9 µM | –

These molecules were tested on T-47D breast (assay: NCI tumour cell line growth inhibition, 48 h).

Row | Compound | TGI | GI50
11 | O=[N+]([O-])/C(C(Cl)=C(Cl)Cl)=C(\SCc1ccccc1)N1CCCCC1 | 51.1 µM | –
12 | O=C1CC(c2ccc3c(c2)OCO3)Nc2ccccc21 (stereo not drawn) | 73.9 µM | 5.23 µM
13 | CCC(CO)Nc1nc2ccc(Cl)cc2c2ccccc12 (stereo not drawn) | 20.9 µM | 6.13 µM

These molecules were tested on HT29 colon (assay: NCI tumour cell line growth inhibition, 48 h).

Row | Compound | TGI | GI50
14 | O=[N+]([O-])/C(C(Cl)=C(Cl)Cl)=C(\SCc1ccccc1)N1CCCCC1 | 82.4 µM | –
15 | CCCN=C1CCN(Cc2ccccc2)c2ccccc2N1 | 90.1 µM | –
16 | O=C1CC(c2ccc3c(c2)OCO3)Nc2ccccc21 (stereo not drawn) | 33.1 µM | 7.76 µM
17 | CCC(CO)Nc1nc2ccc(Cl)cc2c2ccccc12 (stereo not drawn) | 15.6 µM | 4.58 µM
18 | FC(F)(F)c1cc(Cl)cnc1N/N=C(/c1ccccc1)c1ccccn1 | 20.5 µM | –

The molecules below were run on CAKI-1 renal (assay: NCI tumour cell line growth inhibition, 48 h).

Row | Compound | TGI | GI50
19 | O=[N+]([O-])/C(C(Cl)=C(Cl)Cl)=C(\SCc1ccccc1)N1CCCCC1 | > 100 µM | –
20 | CCCN=C1CCN(Cc2ccccc2)c2ccccc2N1 | 63.9 µM | –
21 | O=C1CC(c2ccc3c(c2)OCO3)Nc2ccccc21 (stereo not drawn) | 47.5 µM | 5.31 µM
22 | CCC(CO)Nc1nc2ccc(Cl)cc2c2ccccc12 (stereo not drawn) | 14.6 µM | 2.82 µM
23 | FC(F)(F)c1cc(Cl)cnc1N/N=C(/c1ccccc1)c1ccccn1 | 22.7 µM | –

What follows are molecules tested on HS 578T breast (assay: NCI tumour cell line growth inhibition, 48 h).

Row | Compound | TGI | GI50
24 | O=[N+]([O-])/C(C(Cl)=C(Cl)Cl)=C(\SCc1ccccc1)N1CCCCC1 | > 100 µM | –
25 | CCCN=C1CCN(Cc2ccccc2)c2ccccc2N1 | 36.2 µM | –
26 | O=C1CC(c2ccc3c(c2)OCO3)Nc2ccccc21 (stereo not drawn) | 77 µM | 17.8 µM
27 | CCC(CO)Nc1nc2ccc(Cl)cc2c2ccccc12 (stereo not drawn) | 34.9 µM | 8.82 µM
28 | FC(F)(F)c1cc(Cl)cnc1N/N=C(/c1ccccc1)c1ccccn1 | 5.98 µM | –

What follows are molecules tested on LOX IMVI melanoma (assay: NCI tumour cell line growth inhibition, 48 h).

Row | Compound | TGI | GI50
29 | O=[N+]([O-])/C(C(Cl)=C(Cl)Cl)=C(\SCc1ccccc1)N1CCCCC1 | 35 µM | –
30 | O=C1CC(c2ccc3c(c2)OCO3)Nc2ccccc21 (stereo not drawn) | 20.5 µM | 5.91 µM
31 | CCC(CO)Nc1nc2ccc(Cl)cc2c2ccccc12 (stereo not drawn) | 19.4 µM | 6.17 µM

The molecules below were run on UACC-62 melanoma (assay: NCI tumour cell line growth inhibition, 48 h).

Row | Compound | TGI | GI50
32 | O=[N+]([O-])/C(C(Cl)=C(Cl)Cl)=C(\SCc1ccccc1)N1CCCCC1 | 72 µM | –
33 | CCCN=C1CCN(Cc2ccccc2)c2ccccc2N1 | 26.2 µM | –
34 | O=C1CC(c2ccc3c(c2)OCO3)Nc2ccccc21 (stereo not drawn) | 30.3 µM | 11.7 µM
35 | CCC(CO)Nc1nc2ccc(Cl)cc2c2ccccc12 (stereo not drawn) | 17 µM | 4.71 µM
36 | FC(F)(F)c1cc(Cl)cnc1N/N=C(/c1ccccc1)c1ccccn1 | 13.2 µM | –

What follows are molecules tested on MOLT-4 leukemia (assay: NCI tumour cell line growth inhibition, 48 h).

Row | Compound | TGI | GI50
37 | O=[N+]([O-])/C(C(Cl)=C(Cl)Cl)=C(\SCc1ccccc1)N1CCCCC1 | 41.1 µM | –
38 | CCCN=C1CCN(Cc2ccccc2)c2ccccc2N1 | 34.1 µM | –
39 | O=C1CC(c2ccc3c(c2)OCO3)Nc2ccccc21 (stereo not drawn) | 64.2 µM | 12.8 µM
40 | CCC(CO)Nc1nc2ccc(Cl)cc2c2ccccc12 (stereo not drawn) | 15.2 µM | 3.55 µM
41 | FC(F)(F)c1cc(Cl)cnc1N/N=C(/c1ccccc1)c1ccccn1 | 8.82 µM | –

These molecules were tested on SF-295 CNS (assay: NCI tumour cell line growth inhibition, 48 h).

Row | Compound | TGI | GI50
42 | O=[N+]([O-])/C(C(Cl)=C(Cl)Cl)=C(\SCc1ccccc1)N1CCCCC1 | 81.9 µM | –
43 | CCCN=C1CCN(Cc2ccccc2)c2ccccc2N1 | 95.3 µM | –
44 | O=C1CC(c2ccc3c(c2)OCO3)Nc2ccccc21 (stereo not drawn) | 24.1 µM | 10.1 µM
45 | CCC(CO)Nc1nc2ccc(Cl)cc2c2ccccc12 (stereo not drawn) | 15.3 µM | 2.81 µM
46 | FC(F)(F)c1cc(Cl)cnc1N/N=C(/c1ccccc1)c1ccccn1 | 5.5 µM | –

The molecules below were run on KM12 colon (assay: NCI tumour cell line growth inhibition, 48 h).

Row | Compound | TGI | GI50
47 | O=[N+]([O-])/C(C(Cl)=C(Cl)Cl)=C(\SCc1ccccc1)N1CCCCC1 | 87.1 µM | –
48 | CCCN=C1CCN(Cc2ccccc2)c2ccccc2N1 | 64.6 µM | –
49 | O=C1CC(c2ccc3c(c2)OCO3)Nc2ccccc21 (stereo not drawn) | 20.8 µM | 5.36 µM
50 | CCC(CO)Nc1nc2ccc(Cl)cc2c2ccccc12 (stereo not drawn) | 17.1 µM | 5.3 µM
51 | FC(F)(F)c1cc(Cl)cnc1N/N=C(/c1ccccc1)c1ccccn1 | 30.1 µM | –

These molecules were tested on RXF 393 renal (assay: NCI tumour cell line growth inhibition, 48 h).

Row | Compound | TGI | GI50
52 | O=[N+]([O-])/C(C(Cl)=C(Cl)Cl)=C(\SCc1ccccc1)N1CCCCC1 | 62.6 µM | –
53 | CCCN=C1CCN(Cc2ccccc2)c2ccccc2N1 | 29.6 µM | –
54 | O=C1CC(c2ccc3c(c2)OCO3)Nc2ccccc21 (stereo not drawn) | 28.3 µM | 11.7 µM
55 | CCC(CO)Nc1nc2ccc(Cl)cc2c2ccccc12 (stereo not drawn) | 5.93 µM | 2.3 µM
56 | FC(F)(F)c1cc(Cl)cnc1N/N=C(/c1ccccc1)c1ccccn1 | 40.9 µM | –

What follows are molecules tested on CCRF-CEM leukemia (assay: NCI tumour cell line growth inhibition, 48 h).

Row | Compound | TGI | GI50
57 | O=[N+]([O-])/C(C(Cl)=C(Cl)Cl)=C(\SCc1ccccc1)N1CCCCC1 | 30.5 µM | –
58 | CCCN=C1CCN(Cc2ccccc2)c2ccccc2N1 | > 100 µM | –
59 | O=C1CC(c2ccc3c(c2)OCO3)Nc2ccccc21 (stereo not drawn) | > 100 µM | 3.85 µM
60 | CCC(CO)Nc1nc2ccc(Cl)cc2c2ccccc12 (stereo not drawn) | 17.4 µM | 4.24 µM
61 | FC(F)(F)c1cc(Cl)cnc1N/N=C(/c1ccccc1)c1ccccn1 | 4.85 µM | –

The molecules below were run on TK-10 renal (assay: NCI tumour cell line growth inhibition, 48 h).

Row | Compound | TGI | GI50
62 | O=[N+]([O-])/C(C(Cl)=C(Cl)Cl)=C(\SCc1ccccc1)N1CCCCC1 | > 100 µM | –
63 | CCCN=C1CCN(Cc2ccccc2)c2ccccc2N1 | > 100 µM | –
64 | O=C1CC(c2ccc3c(c2)OCO3)Nc2ccccc21 (stereo not drawn) | 99.4 µM | 25.7 µM
65 | CCC(CO)Nc1nc2ccc(Cl)cc2c2ccccc12 (stereo not drawn) | 18 µM | 3.91 µM

The molecules below were run on BT-549 breast (assay: NCI tumour cell line growth inhibition, 48 h).

Row | Compound | TGI | GI50
66 | CCCN=C1CCN(Cc2ccccc2)c2ccccc2N1 | 34.3 µM | –
67 | O=C1CC(c2ccc3c(c2)OCO3)Nc2ccccc21 (stereo not drawn) | 55.5 µM | 5.99 µM
68 | CCC(CO)Nc1nc2ccc(Cl)cc2c2ccccc12 (stereo not drawn) | 21.7 µM | 10.1 µM
